PubChem BioAssay AID1963833 (Molecular Pharmacology Branch, DTP, NCI, 2024)

System: 883617-216-R-J1-PDC complex spheroid viability
Test: Anticancer human tumor 883617-216-R-J1-PDC patient-derived bladder carcinoma cell line growth inhibition [POLQ]
Conditions: for IC50: curve of first compound; for viability, T/C: stronger effect = lower value
Procedure, shortened: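 Patient-derived tumour cells were co-cultured with HUVEC and mesenchymal stem cells as multicellular spheroids at 37 °C. They were treated with POLQ inhibitors (novobiocin, ART-558, RP6685) alone or combined with other agents. Top concentrations were at or near clinical Cmax (otherwise 10 microM; SN-38 at 1 microM), decreasing in half-log steps.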

[1] = second compound 0.0316 µM, first compound 0.0316 µM
[2] = second compound 0.0316 µM, first compound 0.1 µM
[3] = second compound 0.0316 µM, first compound 0.316 µM
[4] = second compound 0.0316 µM, first compound 1 µM
[5] = second compound 0.0316 µM, first compound 3.16 µM
[6] = second compound 0.0316 µM, first compound 10 µM
[7] = second compound 0.1 µM, first compound 0.0316 µM
[8] = second compound 0.1 µM, first compound 0.1 µM
[9] = second compound 0.1 µM, first compound 0.316 µM
[10] = second compound 0.1 µM, first compound 1 µM
[11] = second compound 0.1 µM, first compound 3.16 µM
[12] = second compound 0.1 µM, first compound 10 µM
[13] = second compound 0.316 µM, first compound 0.0316 µM
[14] = second compound 0.316 µM, first compound 0.1 µM
[15] = second compound 0.316 µM, first compound 0.316 µM
[16] = second compound 0.316 µM, first compound 1 µM
[17] = second compound 0.316 µM, first compound 3.16 µM
[18] = second compound 0.316 µM, first compound 10 µM
[19] = second compound 1 µM, first compound 0.0316 µM
[20] = second compound 1 µM, first compound 0.1 µM
[21] = second compound 1 µM, first compound 0.316 µM
[22] = second compound 1 µM, first compound 1 µM
[23] = second compound 1 µM, first compound 3.16 µM
[24] = second compound 1 µM, first compound 10 µM
[25] = second compound 3.16 µM, first compound 0.0316 µM
[26] = second compound 3.16 µM, first compound 0.1 µM
[27] = second compound 3.16 µM, first compound 0.316 µM
[28] = second compound 3.16 µM, first compound 1 µM
[29] = second compound 3.16 µM, first compound 3.16 µM
[30] = second compound 3.16 µM, first compound 10 µM
[31] = second compound 10 µM, first compound 0.0316 µM
[32] = second compound 10 µM, first compound 0.1 µM
[33] = second compound 10 µM, first compound 0.316 µM
[34] = second compound 10 µM, first compound 1 µM
[35] = second compound 10 µM, first compound 3.16 µM
[36] = second compound 10 µM, first compound 10 µM
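Further: spheroids exposed to compounds for seven days before readout.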
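Wherever viability, T/C is given: 100% = DMSO vehicle control viability.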

CC(=O)O[C@H]1C(=O)[C@@]2(C)[C@H]([C@H](OC(=O)c3ccccc3)[C@]3(O)C[C@H](OC(=O)[C@H](O)[C@@H](NC(=O)c4ccccc4)c4ccccc4)C(C)=C1C3(C)C)[C@]1(OC(C)=O)CO[C@@H]1C[C@@H]2O + Cc1cccc(N(C)C(=O)C2C(O)CCN2c2nc(C)cc(C(F)(F)F)c2C#N)c1
IC50 (second compound 0.0316 µM): < 0.00949 µM | IC50 (second compound 0.1 µM): < 0.00949 µM | IC50 (second compound 0.316 µM): 0.0104 µM | IC50 (second compound 1 µM): < 0.00949 µM | IC50 (second compound 3.16 µM): < 0.00949 µM | IC50 (second compound 10 µM): 0.0111 µM | viability, T/C (second compound 0.0316 µM, first compound 0.00949 µM): 40.2% | viability, T/C (second compound 0.0316 µM, first compound 0.03 µM): 22.1% | viability, T/C (second compound 0.0316 µM, first compound 0.0949 µM): 22% | viability, T/C (second compound 0.0316 µM, first compound 0.3 µM): 19.8% | viability, T/C (second compound 0.0316 µM, first compound 0.949 µM): 18.5% | viability, T/C (second compound 0.0316 µM, first compound 3 µM): 23.1% | viability, T/C (second compound 0.1 µM, first compound 0.00949 µM): 46.9% | viability, T/C (second compound 0.1 µM, first compound 0.03 µM): 29.2% | viability, T/C (second compound 0.1 µM, first compound 0.0949 µM): 21.6% | viability, T/C (second compound 0.1 µM, first compound 0.3 µM): 27.5% | viability, T/C (second compound 0.1 µM, first compound 0.949 µM): 24.6% | viability, T/C (second compound 0.1 µM, first compound 3 µM): 26.7% | viability, T/C (second compound 0.316 µM, first compound 0.00949 µM): 52.2% | viability, T/C (second compound 0.316 µM, first compound 0.03 µM): 25.1% | viability, T/C (second compound 0.316 µM, first compound 0.0949 µM): 24.4% | viability, T/C (second compound 0.316 µM, first compound 0.3 µM): 23.9% | viability, T/C (second compound 0.316 µM, first compound 0.949 µM): 20.8% | viability, T/C (second compound 0.316 µM, first compound 3 µM): 24.8% | viability, T/C (second compound 1 µM, first compound 0.00949 µM): 45.4% | viability, T/C (second compound 1 µM, first compound 0.03 µM): 29.2% | viability, T/C (second compound 1 µM, first compound 0.0949 µM): 22.4% | viability, T/C (second compound 1 µM, first compound 0.3 µM): 18.9% | viability, T/C (second compound 1 µM, first compound 0.949 µM): 26.1% | viability, T/C (second compound 1 µM, first compound 3 µM): 28.2% | viability, T/C (second compound 3.16 µM, first compound 0.00949 µM): 44.1% | viability, T/C (second compound 3.16 µM, first compound 0.03 µM): 24.4% | viability, T/C (second compound 3.16 µM, first compound 0.0949 µM): 32.5% | viability, T/C (second compound 3.16 µM, first compound 0.3 µM): 27.6% | viability, T/C (second compound 3.16 µM, first compound 0.949 µM): 41.8% | viability, T/C (second compound 3.16 µM, first compound 3 µM): 28.9% | viability, T/C (second compound 10 µM, first compound 0.00949 µM): 54.7% | viability, T/C (second compound 10 µM, first compound 0.03 µM): 19.3% | viability, T/C (second compound 10 µM, first compound 0.0949 µM): 21.2% | viability, T/C (second compound 10 µM, first compound 0.3 µM): 25.3% | viability, T/C (second compound 10 µM, first compound 0.949 µM): 21.4% | viability, T/C (second compound 10 µM, first compound 3 µM): 15.6%

COc1cc(C2c3cc4c(cc3C(OC3OC5COC(C)OC5C(O)C3O)C3COC(=O)C23)OCO4)cc(OC)c1O (stereo unspecified) + Cc1cccc(N(C)C(=O)C2C(O)CCN2c2nc(C)cc(C(F)(F)F)c2C#N)c1
IC50 (second compound 0.0316 µM): > 10 µM | IC50 (second compound 0.1 µM): 6.38 µM | IC50 (second compound 0.316 µM): > 10 µM | IC50 (second compound 1 µM): > 10 µM | IC50 (second compound 3.16 µM): > 10 µM | IC50 (second compound 10 µM): > 10 µM | viability, T/C [1]: 98.5% | viability, T/C [2]: 95.8% | viability, T/C [3]: 75.2% | viability, T/C [4]: 66% | viability, T/C [5]: 64% | viability, T/C [6]: 54.8% | viability, T/C [7]: 109% | viability, T/C [8]: 97.8% | viability, T/C [9]: 86.3% | viability, T/C [10]: 68.1% | viability, T/C [11]: 59.3% | viability, T/C [12]: 44.7% | viability, T/C [13]: 96.7% | viability, T/C [14]: 85.9% | viability, T/C [15]: 70% | viability, T/C [16]: 66.7% | viability, T/C [17]: 54.4% | viability, T/C [18]: 53.6% | viability, T/C [19]: 90% | viability, T/C [20]: 102% | viability, T/C [21]: 76.9% | viability, T/C [22]: 64.5% | viability, T/C [23]: 54.9% | viability, T/C [24]: 52.6% | viability, T/C [25]: 121% | viability, T/C [26]: 94.5% | viability, T/C [27]: 77.8% | viability, T/C [28]: 61.3% | viability, T/C [29]: 66.5% | viability, T/C [30]: 49.6% | viability, T/C [31]: 96.8% | viability, T/C [32]: 104% | viability, T/C [33]: 73% | viability, T/C [34]: 73.2% | viability, T/C [35]: 60% | viability, T/C [36]: 55.5%

COc1cccc2c1C(=O)c1c(O)c3c(c(O)c1C2=O)CC(O)(C(=O)CO)CC3OC1CC(N)C(O)C(C)O1 (stereo unspecified) + Cc1cccc(N(C)C(=O)C2C(O)CCN2c2nc(C)cc(C(F)(F)F)c2C#N)c1
IC50 (second compound 0.0316 µM): 0.311 µM | IC50 (second compound 0.1 µM): 0.228 µM | IC50 (second compound 0.316 µM): 0.222 µM | IC50 (second compound 1 µM): 0.359 µM | IC50 (second compound 3.16 µM): 0.206 µM | IC50 (second compound 10 µM): 0.33 µM | viability, T/C [1]: 78% | viability, T/C [2]: 60.8% | viability, T/C [3]: 52.2% | viability, T/C [4]: 9.43% | viability, T/C [5]: 0.22% | viability, T/C [6]: 0.21% | viability, T/C [7]: 66.1% | viability, T/C [8]: 67.9% | viability, T/C [9]: 43.2% | viability, T/C [10]: 8.29% | viability, T/C [11]: 0.32% | viability, T/C [12]: 0.2% | viability, T/C [13]: 74.3% | viability, T/C [14]: 59.8% | viability, T/C [15]: 45.4% | viability, T/C [16]: 6.2% | viability, T/C [17]: 0.22% | viability, T/C [18]: 0.2% | viability, T/C [19]: 65.1% | viability, T/C [20]: 57.5% | viability, T/C [21]: 55.6% | viability, T/C [22]: 5.25% | viability, T/C [23]: 0.22% | viability, T/C [24]: 0.2% | viability, T/C [25]: 66.8% | viability, T/C [26]: 57.3% | viability, T/C [27]: 43.7% | viability, T/C [28]: 3.99% | viability, T/C [29]: 0.31% | viability, T/C [30]: 0.29% | viability, T/C [31]: 66% | viability, T/C [32]: 58.1% | viability, T/C [33]: 51.9% | viability, T/C [34]: 1.41% | viability, T/C [35]: 0.35% | viability, T/C [36]: 0.34%
